Experiments:
SALL4 = target: T1, SALL4 (Homo sapiens, UniProt Q96SW2+Q9UJQ4); assay: Quantification of SALL4 protein levels in HiBiT tag fusion protein assay; type: cell-based
T1 construct: expressed in transfected cells; host or cells: GripTite 293 MSR cells (293GT), ThermoFisher Scientific, stably transfected by electroporation, blasticidin-selected clones
Description: The HiBiT system from Promega was used to develop high-throughput and quantitative assays to measure changes in SALL4 protein levels in response to compounds. The HiBiT tag was derived from a split Nanoluciferase and has the following protein sequence: […] (SEQ ID No: 1). The complementary fragment of Nanoluciferase (known as LgBiT, from Promega), was added to the HiBiT tag to form an active Nanoluciferase enzyme whose activity can be precisely measured. In this way, the levels of a fusion protein with the HiBiT tag can be quantified in cell lysates.
DNA constructs, based on the Invitrogen pLenti6.2/V5 DEST backbone, were constructed with the HiBiT tag upstream of SALL4 and expressed the fusion protein from a CMV promotor.
To ensure moderate and consistent expression of the HiBiT-SALL4 fusion protein across all cells in the population, stable cell lines were derived from clones. GripTite 293 MSR cells (293GT) from ThermoFisher Scientific (Catalog number: CRL-R79507), were stably transfected with prepared constructs via electroporation. Following recovery, cells were selected by 10 ug/mL blasticidin in culture media.
The levels of HiBiT-SALL4 tagged fusion proteins in compound-treated cell lines were measured as follows:
On day 1, cells were diluted to 1.0×10^6 cells/ml in normal growth medium. 20 μL of cell suspension were plated in each well of a solid white 384-well plate. Plates were incubated overnight in a 37° C. and 5% CO2 humidified tissue culture incubator.
On day 2, serial dilutions of compounds were made in 384-well plates. Compound plates were set up with DMSO in columns 1, 2, 23, 24, and 10-point compound dilution series in column 3-12 and column 13-22. 10 mM stock solution of compound were placed into column 3 or 13 and a 1:5 serial dilution was carried out until there was a 10-point dilution series per compound. 100 nL of diluted compounds were transferred into the plated cells by Echo® (Labcyte) acoustic transfer. The highest concentration of compound was 50 μM. Plates were incubated overnight (18 hours) in a 37° C. and 5% CO2 humidified tissue culture incubator.
On day 3, plates were removed from the incubator and allowed to equilibrate at room temperature for 60 minutes. HiBiT substrate (Nano-Glo® HiBit Lytic Detection System, Promega Catalogue number: N3050) was added as described by the manufacturers protocols. Plates were incubated at room temperature for 30 minutes and luminescence was read using an EnVision® reader (PerkinElmer®). Data was analyzed and visualized using the Spotfire® software package.
SALL4 Amax reflects the DMSO-normalized, curve-fitted percentage of SALL4-HiBiT remaining at 50 uM. It was calculated by normalizing DMSO controls to 100%, parametric curve fitting of the dose response data (10-point, 5-fold), followed by calculation of response at 50 uM using the fitted equation.
This assay produced a range of SALL4 AC50 and Amax values over several repeat runs due to normal variations in the assay. For a comparison to the compounds described in PCT/IB2020/062070, the arithmatic mean values are reported over the number of repeats specified. […] The compounds of the present disclosure are therefore expected to have improved toxicological properties (Matyskiela, M. E., Couto, S., Zheng, X. et al. SALL4 mediates teratogenicity as a thalidomide-dependent cereblon substrate. Nat Chem Biol 14, 981-987 (2018); Donovan, K. A. et al. Thalidomide promotes degradation of SALL4, a transcription factor Implicated in Duane Radial Ray syndrome. eLife 2018; 7:e38430).

Fetal Hemoglobin (HbF) = assay: Small molecule HbF induction assay in erythroid-differentiated mPB CD34+ cells (flow cytometry); type: cell-based, human; conditions: highest percentage of cells staining positive for HbF (% HbF+ cells) in fitted dose-response curve; DMSO baseline approximately 30-40%
Description: Cryopreserved primary human CD34^+ hematopoietic stem and progenitor cells were obtained from AllCeIIs, LLC. The CD34^+ cells were isolated from the peripheral blood of healthy donors after mobilization by administration of granulocyte colony-stimulating factor. Cells were differentiated ex vivo toward the erythroid lineage using a 2-phase culture method. In the first phase, cells were cultured in Stemspan™ Serum-Free Expansion Media (SFEM) ([…] Technologies Inc.) supplemented with rhSCF (50 ng/mL, Peprotech®, Inc.), rhlL-6 (50 ng/mL, Peprotech®, Inc.), rhlL-3 (50 ng/mL, Peprotech®, Inc.), and rhFlt3L (50 ng/mL, Peprotech®, Inc.), and 1× antibiotic-antimycotic (Life Technologies, Thermo Fisher Scientific) for 6 days at 37° C. with 5% CO2. During the second phase, cells were cultured in erythroid differentiation media at 5,000 cells/mL in the presence of compound for 7 days at 37° C. with 5% […]. Erythroid Differentiation Media is comprised of IMDM (Life Technologies) supplemented with insulin (10 μg/mL. Sigma Aldrich), heparin (2 U/mL Sigma Aldrich), holo-transferrin (330 μg/mL, Sigma Aldrich), human serum AB (5%, Sigma Aldrich), hydrocortisone (1 μM, […] Technologies), rhSCF (100 ng/mL, Peprotech®, Inc.), rhIL-3 (5 ng/mL. Peprotech®, Inc.), rhEPO (3 U/mL, Peprotech®, Inc.), and 1× antibiotic-antimycotic. All compounds were dissolved and diluted into dimethylsulfoxide (DMSO) and were added to culture media for a final concentration of 0.3% DMSO for testing in a 10-point, 1:3 dilution series starting at 10 uM.
For viability analysis, samples were washed and resuspended in phosphate-buffered saline (PBS) and stained with LlVE/DEAD™ Fixable Violet Dead Cell Stain Kit (Life Technologies, L34963) for 20 minutes. Cells were then washed again with PBS and resuspended in PBS supplemented with 2% fetal bovine serum (FBS), and 2 mM EDTA to prepare for cell surface marker analysis. […]
mPB CD34+ cells were expanded for 6 days, then erythroid differentiated in the presence of compound for 7 days. Cells were fixed, stained and analyzed by flow cytometry. […]

T1 sequence (Q9UJQ4 whole entry, the tested form may be a part): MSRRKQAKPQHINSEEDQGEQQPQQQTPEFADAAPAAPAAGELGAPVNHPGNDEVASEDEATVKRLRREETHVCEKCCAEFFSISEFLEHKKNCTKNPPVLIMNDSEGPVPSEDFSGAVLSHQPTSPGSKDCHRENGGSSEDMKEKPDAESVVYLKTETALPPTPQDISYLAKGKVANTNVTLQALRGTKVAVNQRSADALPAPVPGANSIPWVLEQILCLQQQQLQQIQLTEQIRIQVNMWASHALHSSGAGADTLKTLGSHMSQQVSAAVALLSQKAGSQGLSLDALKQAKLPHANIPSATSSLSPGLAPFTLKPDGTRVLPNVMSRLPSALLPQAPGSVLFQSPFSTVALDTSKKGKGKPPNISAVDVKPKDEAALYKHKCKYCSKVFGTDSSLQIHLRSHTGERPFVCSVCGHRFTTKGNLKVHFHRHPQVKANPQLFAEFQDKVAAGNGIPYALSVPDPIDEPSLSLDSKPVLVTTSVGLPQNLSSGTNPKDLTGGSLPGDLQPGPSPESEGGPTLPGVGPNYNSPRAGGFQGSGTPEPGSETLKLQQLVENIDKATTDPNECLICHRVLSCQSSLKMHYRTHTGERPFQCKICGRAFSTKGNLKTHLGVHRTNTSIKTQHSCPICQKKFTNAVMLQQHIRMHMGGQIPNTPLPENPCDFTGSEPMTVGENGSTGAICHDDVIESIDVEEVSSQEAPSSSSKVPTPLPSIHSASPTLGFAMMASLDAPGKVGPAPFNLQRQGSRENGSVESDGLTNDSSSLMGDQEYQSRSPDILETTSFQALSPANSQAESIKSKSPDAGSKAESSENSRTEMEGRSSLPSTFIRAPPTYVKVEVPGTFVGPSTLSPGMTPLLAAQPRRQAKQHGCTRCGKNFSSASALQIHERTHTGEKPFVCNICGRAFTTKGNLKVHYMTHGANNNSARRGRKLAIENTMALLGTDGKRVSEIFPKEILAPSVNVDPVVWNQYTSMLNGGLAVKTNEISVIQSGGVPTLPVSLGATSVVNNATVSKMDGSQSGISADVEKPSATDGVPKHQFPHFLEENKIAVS
T1 sequence (Q96SW2 whole entry, the tested form may be a part): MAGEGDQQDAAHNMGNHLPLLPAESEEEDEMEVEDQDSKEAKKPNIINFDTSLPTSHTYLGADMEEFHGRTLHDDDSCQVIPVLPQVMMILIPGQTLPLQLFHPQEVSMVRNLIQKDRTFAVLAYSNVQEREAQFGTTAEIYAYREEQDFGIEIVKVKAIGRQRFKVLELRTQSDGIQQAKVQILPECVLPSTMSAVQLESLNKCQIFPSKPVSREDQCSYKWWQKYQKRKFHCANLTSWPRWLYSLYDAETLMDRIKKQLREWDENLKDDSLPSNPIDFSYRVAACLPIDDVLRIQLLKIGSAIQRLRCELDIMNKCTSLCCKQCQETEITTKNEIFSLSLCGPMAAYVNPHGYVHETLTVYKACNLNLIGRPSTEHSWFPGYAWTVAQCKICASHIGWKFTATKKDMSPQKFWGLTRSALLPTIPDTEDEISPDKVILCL
T1 sequence (Q16531 whole entry partner, the tested form may be a part): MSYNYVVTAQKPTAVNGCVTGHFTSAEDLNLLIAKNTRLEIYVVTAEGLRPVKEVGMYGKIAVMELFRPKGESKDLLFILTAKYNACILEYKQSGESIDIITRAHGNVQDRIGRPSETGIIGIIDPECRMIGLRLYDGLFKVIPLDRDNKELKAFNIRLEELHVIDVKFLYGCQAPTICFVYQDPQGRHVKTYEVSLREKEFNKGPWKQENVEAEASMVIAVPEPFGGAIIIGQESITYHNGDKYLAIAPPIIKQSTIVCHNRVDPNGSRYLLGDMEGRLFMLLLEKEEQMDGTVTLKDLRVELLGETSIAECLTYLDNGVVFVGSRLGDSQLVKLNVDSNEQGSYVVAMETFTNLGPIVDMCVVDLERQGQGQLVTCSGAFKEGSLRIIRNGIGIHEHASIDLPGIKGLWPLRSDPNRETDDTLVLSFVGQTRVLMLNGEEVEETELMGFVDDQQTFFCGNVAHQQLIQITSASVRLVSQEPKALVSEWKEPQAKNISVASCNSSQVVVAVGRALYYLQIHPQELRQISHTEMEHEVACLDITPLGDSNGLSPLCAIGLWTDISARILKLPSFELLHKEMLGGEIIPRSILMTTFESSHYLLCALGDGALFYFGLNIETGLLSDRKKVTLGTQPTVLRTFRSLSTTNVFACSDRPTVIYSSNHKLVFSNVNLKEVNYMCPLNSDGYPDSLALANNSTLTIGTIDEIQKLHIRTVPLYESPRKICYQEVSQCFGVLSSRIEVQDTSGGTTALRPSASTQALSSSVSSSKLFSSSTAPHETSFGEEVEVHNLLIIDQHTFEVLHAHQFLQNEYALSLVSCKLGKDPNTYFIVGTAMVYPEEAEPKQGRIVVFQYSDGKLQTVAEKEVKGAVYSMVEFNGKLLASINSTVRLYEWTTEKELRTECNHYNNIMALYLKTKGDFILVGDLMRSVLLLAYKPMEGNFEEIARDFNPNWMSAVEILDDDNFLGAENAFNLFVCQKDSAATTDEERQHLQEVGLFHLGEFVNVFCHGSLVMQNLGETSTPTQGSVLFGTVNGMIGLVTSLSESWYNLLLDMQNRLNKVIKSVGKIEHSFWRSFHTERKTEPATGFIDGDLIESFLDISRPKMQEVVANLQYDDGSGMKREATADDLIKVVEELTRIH

**Q.** Which “SALL4 Amax” value (SALL4; DMSO-normalized, curve-fitted percentage of SALL4-HiBiT remaining at 50 uM, mean over repeats) does the source give for `CCN1CCC[C@@H](Oc2ccc3c(c2)CN(C2CCC(=O)NC2=O)C3=O)C1` (mixture of isomers) [Example 1, 3-(5-(((R)-1-ethylpiperidin-3-yl)oxy)-1-oxoisoindolin-2-yl)piperidine-2,6-dione] here?
**A.** 72.21%

**Q.** And the DC50 (SALL4; arithmatic mean over number of repeats, 18 hours, top 50 μM, read-out: SALL4 AC50)?
**A.** 49 nM

**Q.** And the “HbF Amax” value (Fetal Hemoglobin (HbF))?
**A.** 66.5%

From patent publication US12103919B2, “3-(5-oxy)-1-oxoisoindolin-2-yl)piperidine-2,6-dione derivatives and uses thereof” (NOVARTIS AG, priority 2021, dated 2024)
